Experimental data published in patent publication US20040018253A1, “Use of CYP2D6 inhibitors in combination therapies” (priority 1999, published 2004).
Like-named read-outs stand apart in the source and are kept apart here. One block for each compound: values may come before it.

Assays:
[1] = Human pharmacokinetics of CYP2D6 substrates (half-life, oral bioavailability, hepatic extraction)
CYP2D6 [2] = biological target: T1, CYP2D6 (Homo sapiens, UniProt P10635); assay: CYP2D6 catalyzed metabolism, Michaelis-Menten KM
T1 sequence (P10635 whole entry): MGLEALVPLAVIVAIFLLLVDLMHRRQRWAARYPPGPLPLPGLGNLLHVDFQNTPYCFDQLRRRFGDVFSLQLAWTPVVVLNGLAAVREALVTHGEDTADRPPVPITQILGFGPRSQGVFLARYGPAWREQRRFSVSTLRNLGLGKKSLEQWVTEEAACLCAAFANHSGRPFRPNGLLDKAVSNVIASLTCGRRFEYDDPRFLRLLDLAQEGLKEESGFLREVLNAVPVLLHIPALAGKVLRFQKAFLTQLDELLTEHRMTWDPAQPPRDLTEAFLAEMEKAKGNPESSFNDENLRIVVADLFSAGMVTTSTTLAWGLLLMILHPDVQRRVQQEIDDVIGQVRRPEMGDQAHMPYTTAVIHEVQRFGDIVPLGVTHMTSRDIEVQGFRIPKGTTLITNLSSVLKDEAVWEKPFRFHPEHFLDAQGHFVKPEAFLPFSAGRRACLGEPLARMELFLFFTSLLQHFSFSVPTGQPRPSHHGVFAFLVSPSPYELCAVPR

[3] = in vivo
CYP2D6 [4] = biological target: T1, CYP2D6
CYP = conditions: cited from earlier work
[5] = after oral administration of imipramine; extensive metabolizers; cited from earlier work
[6] = increasing dose; not observed in poor metabolizers; cited from earlier work
CYP2D6 [7] = biological target: T1, CYP2D6; conditions: in vivo, via inhibition of CYP2D6; cited from earlier work

half-life ([1]; in vivo): 3 to 4 h
Km (CYP2D6 [2]; human): 3 to 4 µM
Structure (SMILES): C[C@@H]([C@@H](O)c1ccc(O)cc1)N1CCC(O)(c2ccccc2)CC1 [(1S,2S)-1-(4-hydroxyphenyl)-2-(4-hydroxy-4-phenylpiperidin-1-yl)-1-propanol]

human half-life ([3]; human): about 4.7 hours
human oral bioavailability ([3]; human, po): 1.0%
hepatic extraction ([3]; iv): exceeds 90%
Km (CYP2D6 [4]): ~1 µM
Structure (SMILES): COc1ccccc1CN[C@H]1CCCN[C@H]1c1ccccc1 [(2S,3S)-2-phenyl-3-(2-methoxyphenyl)-methylaminopiperidine]

Structure (SMILES): O=c1c(-c2c(O)cc(O)c3c(=O)cc(-c4ccc(O)cc4)oc23)c(-c2ccc(O)cc2)oc2cc(O)cc(O)c12 [I3, II8-biapigenin]
CYP inhibitory activity (CYP): exhibit CYP inhibitory activity

Structure (SMILES): CNCCCN1c2ccccc2CCc2ccccc21 [desipramine]
range of steady state plasma concentrations [5]: 20 fold

Structure (SMILES): Cc1cc(O)c2c(=O)c3c(O)cc(O)c4c5c(O)cc(O)c6c(=O)c7c(O)cc(C)c8c1c2c(c34)c(c78)c65 [hypericin]
CYP inhibitory activity (CYP): exhibit CYP inhibitory activity

Structure (SMILES): CN(C)CCCN1c2ccccc2CCc2ccccc21 [imipramine]
range of steady state plasma concentrations [5]: 20 fold

Structure (SMILES): Fc1ccc([C@@H]2CCNC[C@H]2COc2ccc3c(c2)OCO3)cc1 [paroxetine]
dose-exposure relationship [6]: supraproportional

Structure (SMILES): O=c1c(O)c(-c2ccc(O)c(O)c2)oc2cc(O)cc(O)c12 [quercetin]
CYP inhibitory activity (CYP): exhibit CYP inhibitory activity

Structure (SMILES): C=C[C@H]1C[N@@]2CC[C@H]1C[C@@H]2[C@@H](O)c1ccnc2ccc(OC)cc12 [quinidine]
effect on metabolizer phenotype (CYP2D6 [7]): converting an extensive metabolizer to the poor metabolizer phenotype

Structure (SMILES): O=C1CCC(=O)N1C[C@H]1CC[C@H]2CN(c3ncccn3)CCN2C1 [sunipetron, (7S,9S)-2-(2-pyrimidyl)-7-(succinamidomethyl)-prehydro-1H-pyrido-[1,2-a]pyrazine]
human oral bioavailability ([1]; oral): 4.6%
Km (CYP2D6 [2]; CYP2D6 substrate): ~1 µM
